In patent US11179469B2, “Transdermal absorption preparation” (Nitto Denko Corporation, priority 2017, dated 2021):

Test: Octanol/water partition coefficient of the drug (log P1)
Type: physicochemical
Conditions: base 10 logarithm
Source text: The octanol/water partition coefficient is the ratio of the distribution of a certain chemical substance respectively to n-octanol and water (ratio of the concentration in n-octanol phase and aqueous phase). It is used as an index showing hydrophobicity and transferability of the chemical substance, and can be measured by the flask shaking method prescribed in the Economic Development Cooperation Organization (OECD) Test Guideline 107 and the like or calculated using the calculation software (“Cache Workspace (registered trade mark)” manufactured by Fujitsu Limited) etc. and inputting the structural formula of the compound. The octanol/water partition coefficient of the polymer is calculated using the molecule structural formula in a monomer unit.

Row | Structure (SMILES) | logP1 (octanol/water partition coefficient of the drug)
1 | CC(C)(C)NCC(O)c1ccccc1Cl (centres unmarked) [Tulobuterol] | 2.55
2 | CC(C)C[C@H](CN)CC(=O)O [pregabalin] | 0.89
